Data published in the NIST ThermoML archive (doi:10.1016/j.jct.2013.10.007).
Numbers after ± are expanded uncertainties.

Legend:
[1] = Crystal; DTA
[2] = Molar enthalpy of transition or fusion; conditions: Crystal; DSC

CCCCCCCCCCCCCCCCCC(=O)OCC(COC(=O)CCCCCCCCCCCCCCCCC)OC(=O)CCCCCCCCCCCCCCCCC [glycerol trioctadecanoate]
Normal melting temperature [1]: 72.89 ± 0.53 °C | Molar enthalpy of transition or fusion [2]: 27.7 ± 8.6 kcal/mol
